pIC50: −log10 of the molar value.

For one assay, the target named is T1, HIV protease (Human immunodeficiency virus type 1 group M subtype B, UniProt P04585).
T1 construct: and purified protease
Description: HIV Protease Assay. The settings on record: pH 5.5, 10 μM inhibitor, 4% DMSO, 450 μM substrate, pH 5.5, 30 minutes at 37° C., RP-HPLC; read-out: HIV Protease % Inhibition at 10 μM. The class given is biochemical. The procedure, abridged: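 Purified protease cleaved 450 μM octapeptide substrate in 50 mM sodium acetate pH 5.5 with 100 μg/ml BSA for 30 minutes at 37° C; product analyzed by reverse-phase HPLC at UV220 after H3PO4 quench. Inhibitors tested at final 10 μM with 4% DMSO.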

Assay [1] relates to RF strain of HIV (CEM-SS cells). Description: Cell Culture Anti-HIV Activity (cell viability, formazan). The class given is cell-based. The settings on record: Human immunodeficiency virus 1, CEM-SS, 144 h, CEM-SS cells, RF strain of HIV, multiplicity of infection 0.04, 6 days at 37° C., 450 nm; read-out: HIV (CEM Cells) IC50. The procedure, abridged: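 CEM-SS cells (5000/well) infected with HIV RF at MOI 0.04, exposed to half-log serial compound dilutions, incubated 6 days at 37° C. Viability read by tetrazolium reduction to formazan, absorbance 450 nm. IC50 is the concentration raising formazan in infected cells to 50% of uninfected, drug-free cells.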

Turning to `CC(C)(C)OC(=O)N[C@@H](Cc1ccccc1)[C@H](O)CNC[C@@H](O)[C@H](Cc1ccccc1)NC(=O)OC(C)(C)CC#CCc1ccccc1` [Compound 167, [1S-(1R*,2S*))]-[Iminobis[2-hydroxy-1-(phenylmethyl)-3,1-propanediyl]biscarbamic acid, 1,1-dimethylethyl 1,1]-dimethyl-5-phenyl-3-pentynyl ester], at HIV protease, the inhibition (in general, the drop in the measured response relative to a control, in per cent) at 10 µM stood at 97%. Further, in assay [1], the pIC50 (in general, the IC50 on a negative log10 scale, so that one unit is a factor of ten) was less than 5.74.

Turning to `COCC(C)(C)OC(=O)N[C@@H](Cc1ccccc1)[C@H](O)CNC[C@@H](O)[C@H](Cc1ccccc1)NC(=O)OC(C)(C)C` [Compound 168, [R-(R*,S*)]-[Iminobis[2-hydroxy-1-(phenylmethyl)-3,1-propanediyl)biscarbamic acid, 1,1-dimethylethyl 2-methoxy-1,1-dimethylethyl ester], the inhibition at 10 µM on HIV protease came to 61%. The pIC50 in assay [1] was 5.85.

As for `CC(C)(C)OC(=O)N[C@@H](Cc1ccccc1)[C@H](O)CNC[C@@H](O)[C@H](Cc1ccccc1)NC(=O)OC(C)(C)CCO` [Compound 169, [1S-(1R*,2S*)]-Iminobis[2-hydroxy-1-(phenylmethyl)-3,1-propanediyl]]biscarbamic acid, 1,1-dimethylethyl-3-hydroxy-1,1-dimethylpropyl ester], the inhibition at 10 µM at HIV protease was 97%. Also, the pIC50 in assay [1] was 6.70.

For the compound `CC(C)[C@H](NC(=O)OCc1nc2ccccc2n1C)C(=O)N[C@@H](Cc1ccccc1)[C@H](O)CNC[C@@H](O)[C@H](Cc1ccccc1)NC(=O)OC(C)(C)C` [Compound 170, [S-[1R*,2S*(2S*,3R*)]-N-[3-[[3-[[(1 l-Dimethylethoxy)carbonyl]amino]-2-hydroxy-4-phenylbutyl]amino]-2-hydroxy-1-(phenylmethyl)-propyl]-N^2-[[(1-methyl-1H-benzimidazol-2-yl)-methoxy]carbonyl]-L-valinamide], at HIV protease, the inhibition at 10 µM came to 100%. Moreover, the pIC50 in assay [1] is 7.00.

Take `CC(C)(C)OC(=O)N[C@@H](Cc1ccccc1)[C@H](O)CNC[C@@H](O)[C@H](Cc1ccc(OCCN2CCOCC2)cc1)NC(=O)OC(C)(C)C` [Compound 175, [1S-[1R*,2S*(2S*,3R*)]]-[3-[[3-[[(1,1-Dimethylethoxy)carbonyl]amino]-2-hydroxy-4-(4-[2-(4-morpholinyl)ethoxyl-phenyl]butyl]amino]-2-hydroxy-1-(phenylmethyl)propyl]carbamic acid, 1,1-dimethylethyl ester]: at HIV protease, the inhibition at 10 µM stood at 99%. Moreover, in assay [1], the pIC50 is 7.52.

On to `CC(C)(C)OC(=O)N[C@@H](Cc1ccccc1)[C@H](O)CNC[C@@H](O)[C@H](Cc1ccc(OCCc2ccccn2)cc1)NC(=O)OC(C)(C)C` [Compound 178, [1S-[1R*,2S*(2S*,3R*)]]-[3-[[3-[[(1,1-Dimethylethoxy)carbonyl]amino]-2-hydroxy-4-(4-[2-(2-pyridinyl)ethoxy]phenyl]butyl]amino]-2-hydroxy-1-(phenylmethyl)-propyl]carbamic acid, 1,1-dimethyl-ethyl ester], for which the inhibition at 10 µM on HIV protease is 99%. In assay [1], the pIC50 was 7.52.

For `CC(C)(C)OC(=O)N[C@@H](Cc1ccccc1)[C@H](O)CNC[C@@H](O)[C@H](Cc1ccc(OCc2ccccc2)cc1)NC(=O)OC(C)(C)C` [Compound 179, [1S-[1R*,2S*(2S*,3R*)]]-[3-[[3-[[(1,1-Dimethylethoxy)carbonyl]amino]-2-hydroxy-4-phenylbutyl]amino]-2-hydroxy-1-[[4-(phenylmethoxy)-phenyl]methyl]propyl]carbamic acid, 1,1-dimethylethyl ester], the inhibition at 10 µM on HIV protease came out at 99%. In addition, the pIC50 in assay [1] was 6.77.

In the case of `CC(C)(C)OC(=O)N[C@@H](Cc1ccccc1)[C@H](O)CNC[C@@H](O)[C@H](Cc1ccccc1)NC(=O)SC(C)(C)C` [Compound 184, [1S-[1R*,2S*(2S*,3R*)]]-[3-[[3-[[[(1 1-Dimethylethyl)thio)carbonyl]amino]-2-hydroxy-4-phenylbutyl]amino]-2-hydroxy-1-(phenylmethyl)-propyl]carbamic acid, 1,1-dimethylethyl ester], on HIV protease, the inhibition at 10 µM is 99%. Besides, in assay [1], the pIC50 was 5.89.

For the compound `CC(C)(C)OC(=O)N[C@@H](Cc1ccccc1)C(O)CN(Cc1ccccc1)CC(O)[C@H](Cc1ccccc1)NC(=O)OC(C)(C)C` (stereo partly drawn) [Compound 194, [2S-(2R*,2R*)]-[[(Phenylmethyl)-imino]bis[2-hydroxy-4-phenyl-3,1-butanediyl]]biscarbamic acid, bis(1,1-dimethylethyl)ester], the inhibition at 10 µM at HIV protease came out at 0%. Further, the negative logarithm of the IC50 (pIC50) in assay [1] was less than 5.30.

For the compound `CN(CC(=O)[C@H](Cc1ccccc1)NC(=O)OC(C)(C)C)C[C@@H](O)[C@H](Cc1ccccc1)NC(=O)OC(C)(C)C` [Compound 197, [1S-[1R*(2S*,3R*)]]-[3-[[3-[[(1,1-Dimethylethoxy)carbonyl]-amino]-2-hydroxy-4-phenylbutyl]-methylamino]-2-oxo-1-(phenylmethyl)propyl]carbamic acid, 1,1-dimethylethyl ester], the inhibition at 10 µM at HIV protease was 10%. Besides, in assay [1], the pIC50 was less than 5.00.

With `CN(CC(O)[C@H](Cc1ccccc1)NC(=O)OC(C)(C)C)C[C@@H](O)[C@H](Cc1ccccc1)NC(=O)OC(C)(C)C` (stereo partly drawn) [Compound 198, [1S-[1R*,2S*(3R*)]]-[3-[[3-[[(1,1-Dimethylethoxy)carbonyl]-amino]-2-hydroxy-4-phenylbutyl]-methylamino]-2-hydroxy-1-(phenylmethyl)propyl]-carbamic acid, 1,1-dimethylethyl ester], the inhibition at 10 µM on HIV protease was found to be 10%. Besides, in assay [1], the pIC50 is less than 4.85.

`CN(CC(=O)[C@H](Cc1ccccc1)NC(=O)OC(C)(C)C)C[C@H](O)[C@H](Cc1ccccc1)NC(=O)OC(C)(C)C` [Compound 199, [1S-[1R*(2R*,3R*)]]-3-[[3[[-(1,1-Dimethylethoxy)carbonyl]-amino]-2-hydroxy-4-phenylbutyl]-methylamino]-2-oxo-1-(phenylmethyl)-propyl]carbamic acid, 1,1-dimethylethyl ester]: the inhibition at 10 µM at HIV protease is 3%. In addition, the negative-log IC50 (pIC50) in assay [1] is less than 4.77.

Turning to `CN(CC(O)C(Cc1ccccc1)NC(=O)OC(C)(C)C)CC(O)C(Cc1ccccc1)NC(=O)OC(C)(C)C` (stereo not drawn) [Compound 200, [1S-[1R*,2R*(1R*)]]-[3-[[3-[[(1,1-Dimethylethoxy)carbonyl]-amino]-2-hydroxy-4-phenylbutyl]-methylamino]-2-hydroxy-1-(phenylmethyl)propyl]-carbamic acid, 1,1-dimethylethyl ester], the inhibition at 10 µM on HIV protease stood at 5%. Besides, the negative logarithm of the IC50 (pIC50) in assay [1] was less than 4.82.

Take `CC(C)(C)OC(=O)N[C@@H](Cc1ccccc1)[C@H](O)CNC[C@@H](O)[C@H](Cc1ccc(OCCCN2CCOCC2)cc1)NC(=O)OC(C)(C)C` [Compound 201, [1S-[1R*,2S*(2S*,3R*)]]-[3-[[3-[[(1,1-Dimethylethoxy)carbonyl]aminol-2-hydroxy-4-[4-[3-(4-morpholinyl)propoxy]phenyl]butyl]amino]-2-hydroxy-1-(phenylmethyl)propyl]carbamic acid, 1,1-dimethylethyl ester]: the inhibition at 10 µM on HIV protease was 99%. In assay [1], the negative-log IC50 (pIC50) is 7.40.

(Values after patent US5760036A, “Aminediol protease inhibitors” (E. R. Squibb & Sons, Inc., priority 1995, dated 1998).)
